From patent publication US20130005811A1, “ANTIMICROBIAL TREATMENT FOR SEEDS AND SPROUTS” (priority 2010, published 2013)
Marks after values point to notes of the source that are not given here.

System: S. typhimurium DT 104
Assay: Inactivation of S. typhimurium DT 104 on alfalfa seeds inoculated with 10^8 CFU/g
Assay type: cell-based, Salmonella typhimurium DT104
Method: Five isolates of Escherichia coli O157:H7, including strain 932 (human isolate), E009 (beef isolate), E0018 (cattle isolate), E0122 (cattle isolate), E0139 (deer jerky isolate); and five isolates of Salmonella typhimurium DT104, including strain H2662 (cattle isolate), 11942A (cattle isolate), 13068A (cattle isolate), 152N17-1 (dairy isolate) and H3279 (human isolate) were used. Nalidixic acid-resistant (50 μg/ml) E. coli O157:H7 were used to facilitate enumeration. Each E. coli O157:H7 and Salmonella strain was grown in tryptic soy broth (TSB, Beckon Dickinson, Sparks, Md.) at 37° C. for 18 hr. Approximately equal cell numbers of each of the five strains were combined and used as a 5-strain mixture with cell numbers being adjusted by spectrophotometric (Spectronic Instruments, Rochester, N.Y.) determination as described in Zhao et al., (2009) J. Food Prot. 72: 928-936, incorporated herein by reference in its entirety. Bacterial cell numbers were confirmed by plating 0.1 ml of serial dilutions (1:10) in 0.1% peptone on tryptic soy agar (TSA, Beckon Dickinson) and Sorbitol MacConkey agar (SMA, Oxoid, Hampshire, UK) for E. coli O157:H7, and TSA and XLD agar (Beckon Dickinson) for Salmonella and incubating all plates at 37° C. for 24 hr, after which colonies were counted.
Levulinic acid (0.5%) and 0.05% sodium dodecyl sulfate (SDS) obtained from Sigma-Aldrich (St. Louis, Mo.) were tested in combination at 21±2° C. for their antimicrobial activity to E. coli O157:H7 and S. typhimurium on alfalfa seeds as a wash treatment. Calcium hypochlorite (Arch Chemicals, Smyrna, Ga.) at 20,000 μg/ml (ppm) was used as the positive control, and deionized water was used as the negative control.
Before each trial, 25 ml of sterile tap water and 25 g of alfalfa seeds were added to a WHIRL-PAK® bag (Nasco, Fort Atkinson, Wis.) and pummeled in a stomacher blender at 150 rpm for 1 min. Duplicate 0.1 ml portions of the contents were plated on SMA, XLD, and TSA plates to detect E. coli O157:H7 and Salmonella, and enumerate aerobic bacteria counts according to the protocols described below. Only E. coli O157:H7-negative and Salmonella-negative alfalfa seeds were used. Dry seeds (50 g) were individually placed in a sterilized glass beaker (1 L) and 5 ml of a mixture of E. coli O157:H7 or S. typhimurium DT 104 (high inocula at 10^8-10^9 CFU/ml and low inocula at 10^3-10^4 CFU/ml) was inoculated on the surface of the seeds in each glass beaker under a laminar flow hood. A sterile plastic spoon was used to mix for 2 min the seeds with bacterial suspension. The glass beakers were held in a laminar flow hood for 1 hr, 4 hr, 24 hr, 48 hr, and 72 hr with intermittent mixing by plastic spoon before use for chemical treatment.
Inactivation of E. coli O157:H7 and Salmonella on Alfalfa Seeds: Inoculated, dried alfalfa seeds (50 g samples) were placed in a 1000 ml glass beaker containing 200 ml of treatment solution and agitated by a magnetic stir bar at 150 ppm at 21° C. for 0, 1, 2, 5, 10, 20, 30, and 60 min. Following treatment, 25 g of seeds was placed in a stomacher bag containing 25 ml 0.1M phosphate buffer, pH 7.2 (PBS) for levulinic acid plus SDS-treated seeds or neutralizing buffer (50×) for calcium hypochlorite-treated seeds and pummeled for 1 min. at 150 rpm in a stomacher blender (Seward, Ltd., Worthing, England). The suspension was serially (1:10) diluted in 0.1% peptone water and 0.1 ml of each dilution was surface-plated in duplicate onto TSA and Sorbitol MacConkey agar containing 50 μg nalidixic acid/ml (TSA-NA and SMA-NA) for E. coli O157:H7, and on TSA and XLD containing ampicillin (32 μg/ml), tetracycline (16 μg/ml) and streptomycin (64 μg/ml) (TSA+ and XLD+) for S. typhimurium DT 104. All plates were incubated at 37° C. for 48 hr.

For [Ca+2].[O-]Cl.[O-]Cl [20,000 ppm, Ca(OCl)2, pH 11.4, Calcium hypochlorite], the “S. typhimurium DT 104 counts in seeds” value (dried for 4 hr, treated for 0 min (actual time 0 delayed by 20 to 30 seconds)) was “+^b (below the minimum detection level by direct plating (<0.7 log CFU/ml), but positive by enrichment culture.)”, the “S. typhimurium DT 104 counts in seeds” value (dried for 4 hr, treated for 1 min) was “−^c” and the “S. typhimurium DT 104 counts in seeds” value (dried for 4 hr, treated for 2 min) was “−”. The “S. typhimurium DT 104 counts in seeds” value (dried for 4 hr, treated for 5 min) was “−”, the “S. typhimurium DT 104 counts in seeds” value (dried for 4 hr, treated for 10 min) was “−” and the “S. typhimurium DT 104 counts in seeds” value (dried for 4 hr, treated for 20 min) was “−”. For the same compound, the “S. typhimurium DT 104 counts in seeds” value (dried for 4 hr, treated for 30 min) was “−”, the “S. typhimurium DT 104 counts in seeds” value (dried for 4 hr, treated for 60 min) was “−” and the “S. typhimurium DT 104 counts in seeds” value (dried for 24 hr, treated for 0 min) was “+ (below the minimum detection level by direct plating (<0.7 log CFU/ml), but positive by enrichment culture.)”. For the same compound, the “S. typhimurium DT 104 counts in seeds” value (dried for 24 hr, treated for 1 min) was “+ (below the minimum detection level by direct plating (<0.7 log CFU/ml), but positive by enrichment culture.)”, the “S. typhimurium DT 104 counts in seeds” value (dried for 24 hr, treated for 2 min) was “−” and the “S. typhimurium DT 104 counts in seeds” value (dried for 24 hr, treated for 5 min) was “−”. For the same compound, the “S. typhimurium DT 104 counts in seeds” value (dried for 24 hr, treated for 10 min) was “−”, the “S. typhimurium DT 104 counts in seeds” value (dried for 24 hr, treated for 20 min) was “−” and the “S. typhimurium DT 104 counts in seeds” value (dried for 24 hr, treated for 30 min) was “−”. For the same compound, the “S. typhimurium DT 104 counts in seeds” value (dried for 24 hr, treated for 60 min) was “−”, the “S. typhimurium DT 104 counts in seeds” value (dried for 48 hr, treated for 0 min) was “+ (below the minimum detection level by direct plating (<0.7 log CFU/ml), but positive by enrichment culture.)” and the “S. typhimurium DT 104 counts in seeds” value (dried for 48 hr, treated for 1 min) was “+ (below the minimum detection level by direct plating (<0.7 log CFU/ml), but positive by enrichment culture.)”. The “S. typhimurium DT 104 counts in seeds” value (dried for 48 hr, treated for 2 min) was “−”, the “S. typhimurium DT 104 counts in seeds” value (dried for 48 hr, treated for 5 min) was “−” and the “S. typhimurium DT 104 counts in seeds” value (dried for 48 hr, treated for 10 min) was “+ (below the minimum detection level by direct plating (<0.7 log CFU/ml), but positive by enrichment culture.)”. The “S. typhimurium DT 104 counts in seeds” value (dried for 48 hr, treated for 20 min) was “−”, the “S. typhimurium DT 104 counts in seeds” value (dried for 48 hr, treated for 30 min) was “−” and the “S. typhimurium DT 104 counts in seeds” value (dried for 48 hr, treated for 60 min) was “−”. For the same compound, the “S. typhimurium DT 104 counts in seeds” value (dried for 72 hr, treated for 0 min) was “−”, the “S. typhimurium DT 104 counts in seeds” value (dried for 72 hr, treated for 1 min) was “−” and the “S. typhimurium DT 104 counts in seeds” value (dried for 72 hr, treated for 2 min) was “−”. For the same compound, the “S. typhimurium DT 104 counts in seeds” value (dried for 72 hr, treated for 5 min) was “−”, the “S. typhimurium DT 104 counts in seeds” value (dried for 72 hr, treated for 10 min) was “−” and the “S. typhimurium DT 104 counts in seeds” value (dried for 72 hr, treated for 20 min) was “+ (below the minimum detection level by direct plating (<0.7 log CFU/ml), but positive by enrichment culture.)”. The “S. typhimurium DT 104 counts in seeds” value (dried for 72 hr, treated for 30 min) was “+ (below the minimum detection level by direct plating (<0.7 log CFU/ml), but positive by enrichment culture.)”, the “S. typhimurium DT 104 counts in seeds” value (dried for 72 hr, treated for 60 min) was “−” and the “Salmonella detection after treatment” value (seeds dried for 4 hr, after 5 min of treatment) was “no detectable Salmonella”. For the same compound, the “Salmonella detection after treatment” value (seeds dried for 24 hr, 48 hr, or 72 hr, treated for 5 min) was “levels only detectable by selective enrichment culture”.
